# Measured values reported in PubChem BioAssay (NCI).
# Where “and” joins values, the source holds several entries; their conditions need not be identical. Equal entries are not always repeated.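 Cells were grown in 96-well plates and exposed to each compound for 48 hours at five concentrations; endpoints were interpolated linearly between bracketing concentrations, or set to the highest concentration if not reached. Here, GI50 denotes the concentration required for 50% inhibition of growth. Definition used: TGI = concentration required for complete inhibition of growth.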
# Assays:
# Assay in all cases: inhibition of tumour cell growth, NCI panel, 48 h
# CCRF-CEM leukemia = test system: CCRF-CEM leukemia
# SK-OV-3 ovarian = test system: SK-OV-3 ovarian
# SF-268 CNS = test system: SF-268 CNS
# SK-MEL-2 melanoma = test system: SK-MEL-2 melanoma
# KM12 colon = test system: KM12 colon
# U251 CNS = test system: U251 CNS
# UACC-62 melanoma = test system: UACC-62 melanoma
# A498 renal = test system: A498 renal
# PC-3 prostate = test system: PC-3 prostate
# BT-549 breast = test system: BT-549 breast
SMILES,TGI (CCRF-CEM leukemia) [µM],TGI (SK-OV-3 ovarian) [µM],TGI (SF-268 CNS) [µM],TGI (SK-MEL-2 melanoma) [µM],TGI (KM12 colon),TGI (U251 CNS) [µM],TGI (UACC-62 melanoma),TGI (A498 renal) [µM],TGI (PC-3 prostate) [µM],TGI (BT-549 breast) [µM],GI50 (CCRF-CEM leukemia),GI50 (SK-OV-3 ovarian) [µM],GI50 (SF-268 CNS),GI50 (SK-MEL-2 melanoma) [µM],GI50 (A498 renal) [µM]
[N-]=[N+]=NC(c1cn(C2CC(O)C(CO)O2)c(=O)[nH]c1=O)C(I)I (centres undefined),> 100,> 100,> 100,> 100,> 100 µM,> 100,> 100 µM,> 100,,,,,,,
CCC(=O)n1c(=O)n(-c2ccc([N+](=O)[O-])cc2)c(=O)n1C(=O)CC,> 100,> 100,> 100,> 100,> 100 µM,> 100,> 100 µM,,> 100,> 100,,,,,
CC(=O)O[C@@H]1CC2[C@@H](CCC3Cc4nc5c(nc4C[C@@]32C)CC2CC[C@@H]3C(CC[C@@]4(C)C3CC[C@@H]4C(C)CCCC(C)C)[C@@]2(C)C5)C2C[C@@H]3OC4(CCC(C)CO4)C(C)[C@@H]3[C@]21C (some centres undefined),> 100,> 100,> 100,,> 100 µM,> 100,50.1 µM,,> 100,> 100,,,,,
N/C(=N\N=C/c1cc(Cl)cc(Cl)c1O)NO,,24.2,> 100,23.1,22.4 µM,> 100,6.73 µM,18.8,,,,,,,
O=C(Cc1ccccc1)NN1C(=O)C(Cl)C1c1ccccc1 (centres undefined),71.4,> 100,> 100,> 100,> 100 µM,> 100,> 100 µM,,,,,,,,
CC[S+](C)c1ccc(-c2c3nc(c(-c4ccc([S+](C)CC)cc4)c4ccc([nH]4)c(-c4ccc([S+](C)CC)cc4)c4nc(c(-c5ccc([S+](C)CC)cc5)c5ccc2[nH]5)C=C4)C=C3)cc1 (centres undefined),> 100,95.5,> 100,77.5,> 100 µM,> 100,54.9 µM,> 100,,,,,,,
CC(=O)C1C(=O)C(=O)N(c2ccc([N+](=O)[O-])cc2Cl)C1=O (centres undefined),> 100,> 100,> 100,> 100,> 100 µM,> 100,> 100 µM,,> 100,> 100,,,,,
COC(=O)C[C@](O)(CCC(C)(C)O)C(=O)O[C@@H]1C(OC)=C[C@]23CCCN2CCc2cc4c(cc2[C@H]13)OCO4,,0.915,0.496,0.407,1.21 µM,0.379,1.12 µM,0.26,,,,,,,
O=C(/C=C\c1ccc(OCCCCCC[P+](c2ccccc2)(c2ccccc2)c2ccccc2)cc1)c1ccc2c(c1)OCCO2,6.15,3.88,3.19,3.9,,,,1.95,,,1.22 µM,1.58,0.585 µM,1.41,0.376
C=CC[C@@]1(C#N)C[C@H](C[C@]2(C#N)C[C@H](CCl)OC(C)(C)O2)OC(C)(C)O1,> 100,> 100,> 100,> 100,> 100 µM,> 100,> 100 µM,> 100,,,,,,,
O=S(=O)(Nc1nc(-c2cc(O)c(O)c(O)c2)cs1)c1ccc(Cl)cc1Cl,41.5,> 100,46.2,> 100,31.1 µM,37.3,> 100 µM,> 100,> 100,,,,,,
O=C1CSC(c2c(O)ccc3ccccc23)N1n1c(=S)[nH]nc(/C=C/c2c(O)ccc3ccccc23)c1=O (centres undefined),3.04,,40.3,15.1,,16.4,10.1 µM,18.4,22.5,23.5,,,,,
O=c1cc(-c2ccc[nH]2)[nH]c2cc3c(cc12)OCO3,> 100,,> 100,> 100,,> 100,> 100 µM,74.3,,,,,> 100 µM,,
O=C(O)C1C2CCC(C2)C1c1ccccc1 (centres undefined),> 100,> 100,> 100,> 100,> 100 µM,> 100,> 100 µM,> 100,> 100,,,,,,
CCCCCCCCCCOC1C(C(C)OCCCN(C)C)OC2OC3(CCCCC3)OC21 (centres undefined),25.4,32.7,30.5,30.4,,28.4,26.2 µM,,25.2,,,,,,
CN(C)C(=O)CO/N=C1/C(c2c(O)[nH]c3ccccc23)=Nc2ccccc21,> 100,> 100,> 100,> 100,> 100 µM,> 100,> 100 µM,,> 100,> 100,,,,,
C[N+](C)(N)Cc1csc(-c2ccc(Cl)cc2)n1,,> 100,> 100,> 100,> 100 µM,> 100,> 100 µM,> 100,> 100,> 100,,,,,
FC(F)(F)c1nc2cc(SSc3cc4nc(C(F)(F)F)[nH]c4cc3Cl)c(Cl)cc2[nH]1,,> 100,> 100,> 100,,> 100,> 100 µM,> 100,> 100,> 100,,,,,
COc1cc(C2c3cc4c(cc3OC(N3CCOCC3)C2C)OCO4)cc(OC)c1OC (centres undefined),> 100,23.4,> 100,28.2,14 µM,> 20.1,56.5 µM,,> 100,65.8,,,,,
CCOC(=O)CCc1c(C)c2c(O)cc(O)cc2oc1=O,> 100,> 100,> 100,> 100,> 100 µM,> 100,> 100 µM,> 100,,,,,,,
O=C(O)C1Cc2ccccc2OC1=O (centres undefined),,> 100,> 100,> 100,> 100 µM,> 100,> 100 µM,,> 100,> 100,,,,,
CNc1nc(=O)c(C#N)c(-c2ccc(C)cc2)s1,> 100,> 100,,> 100,> 100 µM,> 100,> 100 µM,,> 100,> 100,,,,,
CN(c1ccccc1Cl)S(=O)(=O)c1ccccc1,> 100,> 100,> 100,> 100,> 100 µM,> 100,> 100 µM,,> 100,> 100,,,,,

SMILES,TGI (CCRF-CEM leukemia) [µM],TGI (SK-OV-3 ovarian) [µM],TGI (SF-268 CNS) [µM],TGI (SK-MEL-2 melanoma) [µM],TGI (KM12 colon),TGI (U251 CNS) [µM],TGI (UACC-62 melanoma),TGI (A498 renal) [µM],TGI (PC-3 prostate) [µM],TGI (BT-549 breast) [µM],GI50 (CCRF-CEM leukemia),GI50 (SK-OV-3 ovarian) [µM],GI50 (SF-268 CNS),GI50 (SK-MEL-2 melanoma) [µM],GI50 (A498 renal) [µM]
CCCCCCCCCCCCCCCCCCNC(=S)/N=C/c1c(O)cc(C)oc1=O,,87.4,,52.1,36.3 µM,> 100,> 100 µM,,69.8,40.6,,,,,
CC(C(O)c1ccccc1)[N+](=O)[O-] (centres undefined),> 100,,95.5,39,50.6 µM,38.4,37.2 µM,36.3,45.3,,,,,,
CN1CCN(c2ccc3nc(-c4ccc5nc(-c6ccc(N(C)CCCl)cc6)[nH]c5c4)[nH]c3c2)CC1,0.647,1.2,11,0.465,2.31 µM,1.09,1.05 µM,6.74,0.383,,,,,,
OC1NC2CC3NC(O)C(O)NC3CC2NC1O (centres undefined),> 100,> 100,> 100,> 100,> 100 µM,> 100,> 100 µM,,> 100,,,,,,
COc1ccc(-c2c(C(C)=O)c(-c3ccccc3)n(C3OC(COC(C)=O)C(OC(C)=O)C(OC(C)=O)C3OC(C)=O)c(=S)c2C#N)cc1O (centres undefined),> 100,,> 100,,56.6 µM and > 100 µM,> 100,53.6 µM and > 100 µM,> 100,> 100,72.2,23.6 µM and 70.2 µM,,32.6 µM and 76.2 µM,,
O=C(OCc1c(-c2ccccc2)nn(-c2ccccc2)c1COC(=O)Oc1ccccc1)Oc1ccccc1,> 100,> 100,> 100,,> 100 µM,> 100,> 100 µM,> 100,> 100,,,,,,
Cc1ccc(-c2nc3n(c2/C=N\N=C(N)N)CCS3)cc1,55.9,29,29.3,25.9,28.5 µM,28.4,32.1 µM,30.5,28.5,,,,,,
COc1ccc(CCNC(=S)/N=C\C2=C(O)c3ccccc3C2=O)cc1OC,> 100,> 100,> 100,> 100,> 100 µM,> 100,> 100 µM,> 100,> 100,,,,,,
C/C(=N\Nc1ncnc2ccccc12)c1ccccn1,,4.03,7.2,33.9,22.1 µM,34.4,3.22 µM,16.4,31.6,35.5,,,,,
N#CCCCCC12C3C(=O)N(c4ccccc4)C(=O)C3ON1O[C@@H]1C(=O)N(c3ccccc3)C(=O)[C@@H]12 (some centres undefined),> 100,> 100,> 100,,> 100 µM,> 100,> 100 µM,> 100,> 100,> 100,,,,,
CCOC(=O)CC(=Nc1cc(C)on1)N(CC)CC,> 100,> 100,> 100,> 100,> 100 µM,> 100,> 100 µM,> 100,,,,,,,
Cc1ccc(C(=O)NC(C)C)cc1N=NN(C)C,,,> 100,> 100,> 100 µM,> 100,> 100 µM,,,,,,,,
COC(=O)C(Cc1ccccc1)NC(=O)C(CCCN=C(N)N)NC(=O)OCc1ccccc1 (centres undefined),> 100,> 100,> 100,,> 100 µM,> 100,> 100 µM,,> 100,> 100,,,,,
O=C(Nc1cc([N+](=O)[O-])cc([N+](=O)[O-])c1)OC1C2CCC1C1OC1C2 (centres undefined),> 50,> 50,> 50,> 50,> 50 µM,> 50,> 50 µM,> 50,,,,,,,
CC1(C)N=C(/C(C#N)=[N+](/[O-])C(=O)c2ccccc2)C(C)(C)N1O,> 100,> 100,> 100,> 100,> 100 µM,> 100,> 100 µM,,> 100,,,,,,
COc1ccc2c(c1)Cc1c-2[nH]c2cc3c(cc2c1=O)OCO3,39.1,95.8,> 100,21.8,38.3 µM,23.5,22.8 µM,,,,,,,,
Cc1cc(NS(=O)(=O)c2ccc(NC(=O)c3cccc4c(NNc5ccc(S(N)(=O)=O)cc5)c5ccccc5nc34)cc2)no1,66.2,> 100,> 100,61,> 100 µM,63.6,> 100 µM,,> 100,> 100,,,,,
O=C(O)C1(CC(CCCN2CCCCC2)c2ccccc2)CCCC1 (centres undefined),> 100,> 100,> 100,> 100,> 100 µM,> 100,> 100 µM,> 100,> 100,,,,,,
CC(C)(CO)NC(=O)c1cccc(C(=O)NC(C)(C)CO)c1Br,,,> 100,> 100,> 100 µM,> 100,> 100 µM,,> 100,> 100,,,,,
COc1cc(C(=O)OC2CC(C)=CC[C@@]3(C)CC[C@](O)(C(C)C)C23)ccc1O (some centres undefined),69,29.1,38.7,33.2,29.9 µM,67,,33.7,31.9,,,,,,
Cc1noc(C)c1N=Nc1ccc2nonc2c1N,> 100,> 100,> 100,> 100,> 100 µM,,> 100 µM,,> 100,,,,,,
Cc1cc(O)c(/C=N/C(=O)NN)c(=O)o1,> 100,> 100,> 100,> 100,> 100 µM,> 100,> 100 µM,,> 100,> 100,,,,,
C[n+]1c(-c2ccc(/C=N/Nc3n[nH]c(=S)n3N/N=C/c3ccc(-c4cn5ccccc5[n+]4C)cc3)cc2)cn2ccccc21,> 100,> 100,> 100,,> 100 µM,> 100,,,> 100,,,,,,
